# Source: patent US12280037B2, “Method and pharmaceutical composition for treating or preventing trichomoniasis and uses thereof” (EVOFEM BIOSCIENCES, INC., priority 2020, dated 2025)
# Where two headings read alike, the source gives them in different places.
# Assays:
# [1] = EE2 plasma pharmacokinetics alone and with SYM-1219 2 grams (Example 2, Part B); type: in vivo, human
# clinical = details: female, human, plasma, Mean (% CV); for AUC(0-t): NET AUC0-t; for AUC(0-inf): NET AUC0-∞; for Cmax: NET Cmax
# T. vaginalis = details: cited from earlier work; for Cure rates in randomized clinical trials of recommended regimens: CDC 2015 Guidelines - Trichomoniasis
# [2] = system: clinical isolates of T. vaginalis; assay: Susceptibility testing, minimal lethal concentration (MLC), aerobic; type: cell-based, Trichomonas vaginalis
# Description: Susceptibility testing was conducted with one hundred (100) clinical isolates of T. vaginalis.
# Archived, de-identified, clinical isolates of T. vaginalis that were banked in liquid nitrogen were used for this study. The samples had been collected between July 2015 and June 2017, in accordance with institutional review board guidelines, and all patients had consented to the storage and use of their samples for subsequent testing. […] In brief, trichomonads were grown in Diamond's medium 1025 (containing trypticase soy broth, yeast extract, maltose, and calf serum) adjusted to pH 5.9 and supplemented with streptomycin at 1 g/liter and penicillin G at 100 U/ml. A hemocytometer was used to count the trichomonad population and to adjust it to a concentration of 66,666 cells/ml. Isolates were tested in microtiter plates under aerobic conditions. […] Plates were then incubated at 37° C. for 46 hours to 50 hours and read with a Zeiss Axiovert inverted microscope. The concentration of drug in the microplate wells in which no motile trichomonads were observed was reported as the MLC. […] Low-level resistance was defined as an aerobic MLC of 50 μg/ml to 100 μg/ml, moderate-level resistance as an aerobic MLC of 200 μg/ml, and high-level resistance as an aerobic MLC of >400 μg/ml. The MLCs for metronidazole and secnidazole were analyzed using the Wilcoxon signed-rank test to evaluate the differences between treatments.
# Each well of a 96-well plate was filled with 150 μL of T. vaginalis suspension in Diamond's growth media (10^4 trichomonads). […] Cultures were visually assessed for survival, defined by observation of motility, through a 100× inverted microscope.
# [3] = CDC 2015 Guidelines - Trichomoniasis; cited from earlier work
# [4] = Group B1 (SYM-1219 2 grams co-administered on Day 1)
# [5] = Group B1: Period 2 (SYM-1219 2 grams same day) vs Period 1 (EE2/NET alone)
# [6] = Group B1 Period 1: EE2/NET alone
# [7] = Group B1 Period 2: EE2/NET followed by SYM-1219 2 grams on Day 1
# [8] = Group B2 (EE2/NET 1 day after SYM-1219 2 grams)
# [9] = Group B2: Period 2 (EE2/NET 1 day after SYM-1219 2 grams) vs Period 1 (EE2/NET alone)
# [10] = Group B2 Period 1: EE2/NET alone
# [11] = Group B2 Period 2: SYM-1219 2 grams on Day 1, EE2/NET on Day 2
# [12] = meta-analysis of six published studies
# [13] = 100 clinical T. vaginalis isolates
# [14] = 100 clinical T. vaginalis isolates, aerobic, 46-50 h
structure (smiles),measurement,setting,value
"C#C[C@]1(O)CC[C@H]2[C@@H]3CCc4cc(O)ccc4[C@H]3CC[C@@]21C [EE2, ethinyl estradiol]",Change in EE2 AUC,[1]; [4],no change
same,EE2 Cmax reduced by,[1]; [4],29%
same,"EE2 AUC0-t, Geometric LSMean % Ratio (SE), 100*Test/Reference",[1]; [5],94.26 (2.683) %
same,"EE2 AUC0-∞, Geometric LSMean % Ratio (SE), 100*Test/Reference",[1]; [5],105.37 (4.565) %
same,"EE2 Cmax, Geometric LSMean % Ratio (SE), 100*Test/Reference",[1]; [5],71.07 (4.951) %
same,"EE2 AUC0-t, Mean (% CV)",[1]; [6],643.67 (23.85) h*pg/mL
same,"EE2 Cmax, Geometric Least Squares (LS) Means (SE)",[1]; [6],77.92 (3.839) pg/mL
same,"EE2 Cmax, Mean (% CV)",[1]; [6],80.63 (26.84) pg/mL
same,"EE2 AUC0-t, Geometric Least Squares (LS) Means (SE)",[1]; [7],590.74 (11.892) h*pg/mL
same,"EE2 Cmax, Geometric Least Squares (LS) Means (SE)",[1]; [7],55.38 (2.728) pg/mL
same,"EE2 Cmax, Mean (% CV)",[1]; [7],59.88 (42.19) pg/mL
same,EE2 PK alteration,[1]; [8],not altered
same,"EE2 AUC0-t, Geometric LSMean % Ratio (SE), 100*Test/Reference",[1]; [9],99.04 (2.291) %
same,"EE2 AUC0-∞, Geometric LSMean % Ratio (SE), 100*Test/Reference",[1]; [9],93.32 (3.570) %
same,"EE2 Cmax, Geometric LSMean % Ratio (SE), 100*Test/Reference",[1]; [9],104.96 (4.034) %
same,"EE2 AUC0-t, Geometric Least Squares (LS) Means (SE)",[1]; [10],649.96 (10.631) h*pg/mL
same,"EE2 AUC0-t, Mean (% CV)",[1]; [10],680.48 (28.91) h*pg/mL
same,"EE2 AUC0-t, Geometric Least Squares (LS) Means (SE)",[1]; [11],643.74 (10.529) h*pg/mL
same,"EE2 Cmax, Geometric Least Squares (LS) Means (SE)",[1]; [11],87.16 (2.369) pg/mL
"C#C[C@]1(O)CC[C@H]2[C@@H]3CCC4=CC(=O)CC[C@@H]4[C@H]3CC[C@@]21C [NET, norethindrone]","NET Cmax, AUC0-t or AUC0-∞ increased by",EE2/NET administered 1 day after SYM-1219,9-16%
same,NET Cmax and AUC increased,[4],13%
same,"NET AUC0-t, Geometric LSMean % Ratio (SE), 100*Test/Reference",[5],115.52 (5.828) %
same,"NET AUC0-∞, Geometric LSMean % Ratio (SE), 100*Test/Reference",[5],116.27 (6.032) %
same,"NET Cmax, Geometric LSMean % Ratio (SE), 100*Test/Reference",[5],113.18 (7.958) %
same,"NET λz, Mean",[6],0.07709 h⁻¹
same,"NET λz, Median",[6],0.07966 h⁻¹
same,"NET t1/2, Median",[7],9.12 h
same,"NET λz, Mean",[7],0.07886 h⁻¹
same,"NET λz, Median",[7],0.07642 h⁻¹
same,Change in NET AUC,[8],no change
same,NET Cmax increased by,[8],16%
same,"NET AUC0-t, Geometric LSMean % Ratio (SE), 100*Test/Reference",[9],110.78 (4.104) %
same,"NET AUC0-∞, Geometric LSMean % Ratio (SE), 100*Test/Reference",[9],108.75 (4.207) %
same,"NET Cmax, Geometric LSMean % Ratio (SE), 100*Test/Reference",[9],116.46 (8.178) %
same,"NET AUC0-∞, Median",[10],47.35 ng·h/mL
same,"NET t1/2, Median",[10],9.29 h
same,"NET λz, Mean",[10],0.07369 h⁻¹
same,"NET λz, Median",[10],0.07458 h⁻¹
same,"NET AUC0-t, Median",[11],44.53 ng·h/mL
same,"NET Cmax, Mean (% CV)",[11],10.69 (48.34) ng/mL
same,"NET Cmax, Mean (SD)",[11],10.69 (5.169) ng/mL
same,"NET Tmax, Median",[11],1.000 h
same,"NET t1/2, Median",[11],9.19 h
same,"NET λz, Mean",[11],0.07685 h⁻¹
same,"NET λz, Median",[11],0.07539 h⁻¹
same,"NET Cmax, AUC0-t or AUC0-∞ increased by",SYM-1219 administered immediately after EE2/NET,13-16%
same,AUC(0-t),clinical; [6],49.4 ng·h/mL
same,AUC(0-t),clinical; [7],53.5 ng·h/mL
same,AUC(0-t),clinical; [10],61.4 ng·h/mL
same,AUC(0-t),clinical; [11],61.2 ng·h/mL
same,AUC(0-inf),clinical; [6],57.8 ng·h/mL
same,AUC(0-inf),clinical; [7],62.4 ng·h/mL
same,AUC(0-inf),clinical; [10],75 ng·h/mL
same,AUC(0-inf),clinical; [11],71.5 ng·h/mL
same,Cmax,clinical; [6],9.18 ng/mL
same,Cmax,clinical; [7],10.1 ng/mL
same,Cmax,clinical; [10],9.63 ng/mL
Cc1ncc([N+](=O)[O-])n1CCO [metronidazole],Cure rates in randomized clinical trials of recommended regimens,T. vaginalis,84%-98%
same,Cure rate for single dose treatment,T. vaginalis; HIV-positive women with trichomoniasis (Kissinger 2010),83.2%
same,Increase in treatment failures with single-dose 2-gram vs 7-day dose (500 mg twice daily),"T. vaginalis; HIV-uninfected, non-pregnant women, 2018 comparison study",45%
same,Fewer treatment failures with 7 day-dose compared to single-dose,T. vaginalis; [12],46%
same,Test of cure (TOC) positive rates after single-dose,T. vaginalis; [12],6.2% to 18.0%
same,Isolates exhibiting moderate resistance (aerobic MLC 200 μg/ml),[2]; [13],1%
same,Prevalence of low-level resistance (aerobic MLC 50 μg/ml to 100 μg/ml),[2]; [13],7%
same,"MLC, mean (±SD) among all isolates",[2]; [14],13.5 ± 26.9 µg/mL
same,"MLC, median",[2]; [14],6.3 µg/mL
same,MLC in the one isolate with a higher MLC for secnidazole than for metronidazole,[2]; single clinical isolate,1.6 µg/mL
same,Half-life,[3],7.3 h
CCS(=O)(=O)CCn1c([N+](=O)[O-])cnc1C [tinidazole],Cure rates in randomized clinical trials of recommended regimens,T. vaginalis,92%-100%
same,Half-life,[3],12.5 h
